{"source": "patent US20240390293A1", "about": "“DERIVATIVES OF THE PROTECTIN 10S,17S-DIHDA (PDX) AND USE THEREOF AS ANTIVIRAL, ANTI-INFLAMMATORY, AND ANTI-DIABETIC AGENTS” (priority 2021, published 2024)", "key": {"[1]": {"tested_on": "influenza A/Puerto Rico/8/34 (H1N1)", "assay_type": "cell-based", "details": "A549 cells, 24 hours"}, "[2]": {"tested_on": "interleukin-6 (IL-6) release", "details": "skeletal muscle cells; PDX at submicromolar concentrations; cited from earlier work"}, "iNOS": {"tested_on": "iNOS", "assay": "LPS-induced iNOS activity (nitrite production, Griess method) in J774 macrophages", "assay_type": "cell-based, mice", "details": "for IC50: Mus musculus; for nitrite production in LPS-induced J774 mice macrophages: LPS 2.5 ng/ml, 18 h, dose-dependent", "procedure": "J774A.1 macrophages are grown in DMEM, supplemented with 10% Bovine Growth Serum (BGS) and 1% penicillin-streptomycin (PS). The J774A.1 macrophages are subsequently stimulated with LPS 2.5 ng/ml in DMEM supplemented with 10% BGS and 1% PS for 16 h-18 h. […] After incubation, the level of inflammation is evaluated by measuring the nitrite content in the medium by using the Griess method and normalized by protein concentration."}, "SARS-CoV-2 [3]": {"tested_on": "SARS-CoV-2", "assay": "Plaque Reduction Assay (PRA) of SARS-CoV-2 replication on VERO E6 cells", "assay_type": "cell-based"}, "SARS-CoV-2 [4]": {"tested_on": "SARS-CoV-2", "assay": "SARS-CoV-2 infected hamsters: viral titers and weight variation", "assay_type": "in vivo, Golden Syrian hamsters", "procedure": "Animal Studies. 5-6 Week-old Golden Syrian hamsters were infected with 4.5 log PFU of original SARS-CoV-2 strain. On days 1, 2 and 3, or 1 to 5 post-infection, the animals were treated intraperitoneally with either Remdesivir (15 mg/kg), analog RM-598-48 (50 mg/kg), Remdesivir (15 mg/kg)+analog RM-598-48 (50 mg/kg), analog RM-598-44 (50 mg/kg), or with vehicle only (FIG. 28). The hamsters were monitored daily over a period of 14 days for clinical symptoms and weight loss. On day 4 post-infection, nasal turbinates and lungs were harvested to assess viral replication. All animal studies were approved by the Animal Protection Committee of the Centre Hospitalier Universitaire de Québec according to the Canadian Council on Animal Care guidelines.\nViral titers. Viral titers were determined in cell culture to characterize the presence of live virus. Ten-fold dilutions of nasal turbinates and lung homogenates were performed in infection medium. After one week of infection, titers were determined and reported in TCID50 per gram of organ."}, "[5]": {"details": "LPS-stimulated J774 macrophages, nitrite by Griess method, read-out: Anti-inflammatory Activity on iNOS IC50"}, "[6]": {"details": "Severe acute respiratory syndrome coronavirus 2, Vero C1008, VERO E6 cells, plaque reduction assay, read-out: SARS-COV-2 Inhibition IC50"}, "[7]": {"details": "50 mg/kg IP from day 1 until day 5 post-infection"}, "[8]": {"details": "Severe acute respiratory syndrome coronavirus 2, Vero C1008, read-out: SARS-COV-2 Inhibition (%)"}}, "note": "Read-outs that look alike come from different tables or passages of the source."}
{"smiles": "O=C1c2c(O)c(=O)ccn2N([C@@H]2c3ccccc3SCc3c2ccc(F)c3F)[C@@H]2COCCN12", "note": "[BXA, Baloxavir acid]", "values": [{"measurement": "decrease in the viral charge", "setting": "[1]; 5 μM", "result": 88, "unit": "%"}]}
{"smiles": "CC/C=C\\C[C@H](O)\\C=C/C=C/C=C/[C@H](O)C/C=C\\C/C=C\\CCC(=O)O", "note": "[PD1, protectin D1]", "values": [{"measurement": "decrease in the viral charge", "setting": "[1]; 50 μM", "result": 10, "unit": "%"}, {"measurement": "release of interleukin-6 (IL-6)", "setting": "[2]", "result": "ineffective"}]}
{"smiles": "CC/C=C\\C[C@H](O)/C=C/C=C\\C=C\\[C@@H](O)C/C=C\\C/C=C\\CCC(=O)O", "note": "[PDX, 10S, 17S-diHDA, reference compound]", "values": [{"measurement": "IC50", "setting": "iNOS; [5]", "result": 96, "unit": "µM"}, {"measurement": "inhibition at 5 µM", "setting": "SARS-CoV-2 [3]; Severe acute respiratory syndrome coronavirus 2, Vero C1008, 5 μM, VERO E6 cells, plaque reduction assay, read-out: SARS-COV-2 Inhibition (%)", "result": 0, "unit": "%"}, {"measurement": "inhibition at 50 µM", "setting": "SARS-CoV-2 [3]; Severe acute respiratory syndrome coronavirus 2, Vero C1008, 50 μM, VERO E6 cells, plaque reduction assay, read-out: SARS-COV-2 Inhibition (%)", "result": 18, "unit": "%"}, {"measurement": "release of interleukin-6 (IL-6)", "setting": "[2]", "result": "induce the release"}]}
{"smiles": "CC/C=C\\C[C@H](O)/C=C/C=C\\C=C\\[C@@H](O)CCOc1ccc(C)cc1", "note": "[PDX-1]", "values": [{"measurement": "nitrite production in LPS-induced J774 mice macrophages", "setting": "iNOS", "result": "reduced nitrite production"}, {"measurement": "IC50", "setting": "iNOS; [5]", "result": 11, "unit": "µM"}]}
{"smiles": "CC/C=C\\C[C@H](O)/C=C/C=C\\C=C\\[C@@H](O)CCOc1ccc(CC(=O)OC)cc1", "note": "[PDX-2]", "values": [{"measurement": "nitrite production in LPS-induced J774 mice macrophages", "setting": "iNOS", "result": "reduced nitrite production"}, {"measurement": "IC50", "setting": "iNOS; [5]", "result": 64, "unit": "µM"}, {"measurement": "IC50", "setting": "SARS-CoV-2 [3]; [6]", "result": 33, "unit": "µM"}, {"measurement": "weight loss (weight variation, % of initial weight)", "setting": "SARS-CoV-2 [4]; [7]", "result": "significantly limit weight loss"}, {"measurement": "weight loss (weight variation, % of initial weight)", "setting": "SARS-CoV-2 [4]; 50 mg/kg IP on days 1, 2 and 3 post-infection, significant at days 3, 9, 11, 12 and 14", "result": "significantly limit weight loss"}, {"measurement": "viral loads in nasal turbinates", "setting": "SARS-CoV-2 [4]; 50 mg/kg IP on days 1, 2 and 3 post-infection, titers on day 4, vs untreated hamsters", "result": "significantly different from the untreated hamsters"}]}
{"smiles": "CC/C=C\\C[C@H](O)/C=C/C=C\\C=C\\[C@@H](O)CCNCCCCCC", "note": "[PDX-6]", "values": [{"measurement": "nitrite production in LPS-induced J774 mice macrophages", "setting": "iNOS", "result": "reduced nitrite production"}, {"measurement": "IC50", "setting": "iNOS; [5]", "result": 50, "unit": "µM"}, {"measurement": "IC50", "setting": "SARS-CoV-2 [3]; [6]", "result": 29, "unit": "µM"}]}
{"smiles": "CC/C=C\\C[C@H](O)/C=C/C=C\\C=C\\[C@@H](O)CCN1CCCCC1", "note": "[PDX-7]", "values": [{"measurement": "nitrite production in LPS-induced J774 mice macrophages", "setting": "iNOS", "result": "reduced nitrite production"}]}
{"smiles": "CC/C=C\\C[C@H](O)/C=C/C=C/C=C/[C@@H](O)CCN1CCCCC1", "note": "[PDX-10]", "values": [{"measurement": "nitrite production in LPS-induced J774 mice macrophages", "setting": "iNOS", "result": "reduced nitrite production"}, {"measurement": "IC50", "setting": "iNOS; [5]", "result": 32, "unit": "µM"}, {"measurement": "IC50", "setting": "SARS-CoV-2 [3]; [6]", "result": 56, "unit": "µM"}]}
{"smiles": "CC/C=C\\C[C@H](O)/C=C/C=C\\C=C\\[C@@H](O)CCOc1ccc(C(=O)OC)cc1", "note": "[PDX-16]", "values": [{"measurement": "nitrite production in LPS-induced J774 mice macrophages", "setting": "iNOS", "result": "reduced nitrite production"}]}
{"smiles": "CC/C=C\\C[C@H](O)/C=C/C=C\\C=C\\[C@@H](O)CCOc1ccncc1", "note": "[PDX-17]", "values": [{"measurement": "nitrite production in LPS-induced J774 mice macrophages", "setting": "iNOS", "result": "reduced nitrite production"}]}
{"smiles": "CC/C=C\\C[C@H](O)/C=C/C=C\\C=C\\[C@@H](O)CCOc1ccc2ccc(=O)oc2c1", "note": "[PDX-18]", "values": [{"measurement": "nitrite production in LPS-induced J774 mice macrophages", "setting": "iNOS", "result": "reduced nitrite production"}]}
{"smiles": "CC/C=C\\C[C@H](O)/C=C/C=C\\C=C\\[C@@H](O)CCOc1ccc(C(=O)O)cc1", "note": "[PDX-19]", "values": [{"measurement": "nitrite production in LPS-induced J774 mice macrophages", "setting": "iNOS", "result": "reduced nitrite production"}]}
{"smiles": "CC/C=C\\C[C@H](O)/C=C/C=C\\C=C\\[C@@H](O)CCNCCC", "note": "[PDX-20]", "values": [{"measurement": "nitrite production in LPS-induced J774 mice macrophages", "setting": "iNOS", "result": "reduced nitrite production"}]}
{"smiles": "CC/C=C\\C[C@H](O)/C=C/C=C\\C=C\\[C@@H](O)CCOc1cccc(CC(=O)O)c1", "note": "[PDX-21]", "values": [{"measurement": "nitrite production in LPS-induced J774 mice macrophages", "setting": "iNOS", "result": "reduced nitrite production"}]}
{"smiles": "CC/C=C\\C[C@H](O)/C=C/C=C\\C=C\\[C@@H](O)CCOc1cccc(CC(=O)OC)c1", "note": "[PDX-22]", "values": [{"measurement": "nitrite production in LPS-induced J774 mice macrophages", "setting": "iNOS", "result": "reduced nitrite production"}]}
{"smiles": "CC/C=C\\C[C@H](O)/C=C/C=C\\C=C\\[C@@H](O)CCOc1ccc(CC(=O)NC)cc1", "note": "[PDX-23]", "values": [{"measurement": "nitrite production in LPS-induced J774 mice macrophages", "setting": "iNOS", "result": "reduced nitrite production"}]}
{"smiles": "CC/C=C\\C[C@H](O)/C=C/C=C\\C=C\\[C@@H](O)CCOc1ccc(CC(N)=O)cc1", "note": "[PDX-24]", "values": [{"measurement": "nitrite production in LPS-induced J774 mice macrophages", "setting": "iNOS", "result": "reduced nitrite production"}, {"measurement": "decrease in the viral charge", "setting": "[1]; 50 μM", "result": 39, "unit": "%"}]}
{"smiles": "CC/C=C\\C[C@H](O)C#C/C=C\\C#C[C@@H](O)CCO", "note": "[PDX-Al-1]", "values": [{"measurement": "nitrite production in LPS-induced J774 mice macrophages", "setting": "iNOS", "result": "reduced nitrite production"}, {"measurement": "IC50", "setting": "iNOS; J774, read-out: Anti-inflammatory Activity on iNOS IC50", "result": 18, "unit": "µM"}, {"measurement": "inhibition at 5 µM", "setting": "SARS-CoV-2 [3]; [8]", "result": 40, "unit": "%"}, {"measurement": "inhibition at 50 µM", "setting": "SARS-CoV-2 [3]; [8]", "result": 30, "unit": "%"}, {"measurement": "weight loss (weight variation, % of initial weight)", "setting": "SARS-CoV-2 [4]; [7]", "result": "tendency to limit weight loss, but not in a significant manner"}]}
{"smiles": "O=c1c(O)c(-c2ccc(O)c(O)c2)oc2cc(O)cc(O)c12", "note": "[Quercetin, reference compound]", "values": [{"measurement": "nitrite production in LPS-induced J774 mice macrophages", "setting": "iNOS", "result": "reduced nitrite production"}]}
{"smiles": "CCC(CC)COC(=O)[C@H](C)N[P@](=O)(OC[C@H]1O[C@@](C#N)(c2ccc3c(N)ncnn23)[C@H](O)[C@@H]1O)Oc1ccccc1", "note": "[Remdesivir, reference compound]", "values": [{"measurement": "IC50", "setting": "SARS-CoV-2 [3]; Severe acute respiratory syndrome coronavirus 2, Vero C1008, read-out: SARS-COV-2 Inhibition IC50", "result": 3.9, "unit": "µM"}]}
